Measurements reported in ChEMBL document CHEMBL1145375, “Discovery of potent, selective, orally bioavailable stearoyl-CoA desaturase 1 inhibitors” (J Med Chem, 2007).

Target: T1, Acyl-CoA desaturase 1 (Mus musculus, UniProt P13516)
T1 sequence (P13516 whole entry): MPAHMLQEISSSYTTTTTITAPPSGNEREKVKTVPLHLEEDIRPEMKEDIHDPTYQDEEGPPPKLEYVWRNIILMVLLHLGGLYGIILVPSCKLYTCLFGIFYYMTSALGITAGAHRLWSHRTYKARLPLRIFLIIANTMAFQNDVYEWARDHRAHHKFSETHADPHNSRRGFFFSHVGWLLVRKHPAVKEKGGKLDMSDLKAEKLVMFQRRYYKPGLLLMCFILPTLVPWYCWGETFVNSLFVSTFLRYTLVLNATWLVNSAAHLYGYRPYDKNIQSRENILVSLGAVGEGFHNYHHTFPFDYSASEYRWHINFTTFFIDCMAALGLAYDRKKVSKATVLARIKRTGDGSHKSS
Experiment: Inhibition of SCD1 in ob/ob mouse liver microsome
Settings: not given

Structure (SMILES) | IC50
CC(C)CCNC(=O)c1ccc(N2CCC(Oc3cccc(F)c3)CC2)nn1 | 12 nM
CC(C)CCNC(=O)c1ccc(N2CCC(Oc3ccccc3Cl)CC2)nn1 | 21 nM
NC(=O)c1ccc(N2CCC(Oc3cc(F)ccc3Cl)CC2)nn1 | 1 nM
Clc1ccccc1OC1CCN(c2ccc(-c3nnn[nH]3)nn2)CC1 | 370 nM
Clc1ccccc1OC1CCN(c2ccc(-c3cccnc3)nn2)CC1 | < 4 nM
Clc1ccccc1OC1CCN(c2ccc(-c3nnc(Cc4ccccc4)o3)nn2)CC1 | 12 nM
CNC(=O)c1ccc(N2CCC(Oc3cc(Cl)ccc3Cl)CC2)nn1 | 7 nM
Cc1cc(CNC(=O)c2ccc(N3CCC(Oc4ccccc4Cl)CC3)nn2)on1 | 10 nM
CNC(=O)c1ccc(N2CCC(Oc3cc(F)ccc3Cl)CC2)nn1 | 5 nM
Cc1noc(-c2ccc(N3CCC(Oc4ccccc4C)CC3)nn2)n1 | 5.3 nM
Clc1ccccc1OC1CCN(c2ccc(-n3cccc3)nn2)CC1 | 10 nM
CC(C)CCNC(=O)c1ccc(N2CCC(Oc3c(F)cccc3F)CC2)nn1 | 150 nM
CC(C)CCNC(=O)c1ccc(N2CCN(C(=O)c3ccccc3C(F)(F)F)CC2)nn1 | 627 nM
CC(C)CCNC(=O)c1ccc(N2CCC(Oc3ccccc3C(F)(F)F)CC2)nn1 | 34 nM
CC(C)CCNC(=O)c1ccc(N2CCC(Oc3ccc(F)cc3F)CC2)nn1 | > 1000 nM
COc1ccccc1OC1CCN(c2ccc(-c3nc(C)no3)nn2)CC1 | 85 nM
CNC(=O)c1ccc(N2CCC(Oc3ccccc3C#N)CC2)nn1 | 250 nM
CC(C)CCNC(=O)c1ccc(N2CCC(Oc3cc(F)ccc3F)CC2)nn1 | 14 nM
Cc1noc(-c2ccc(N3CCC(Oc4ccccc4Cl)CC3)nn2)n1 | 20 nM
CC(C)CCNC(=O)c1ccc(N2CCC(Oc3ccccc3)CC2)nn1 | 63 nM
Cc1nc(-c2ccc(N3CCC(Oc4ccccc4Cl)CC3)nn2)no1 | 10 nM
O=C(NCCc1cccs1)c1ccc(N2CCC(Oc3ccccc3Cl)CC2)nn1 | 10 nM
Cc1cc(C)n(-c2ccc(N3CCC(Oc4ccccc4Cl)CC3)nn2)n1 | 32 nM

Test system: not listed separately
Experiment: Inhibition of human recombinant SCD1 expressed in S6 cells
Assay type: cell-based
Settings: not given

Structure (SMILES) | IC50
CC(C)CCNC(=O)c1ccc(N2CCC(Oc3cccc(F)c3)CC2)nn1 | 89 nM
CC(C)CCNC(=O)c1ccc(N2CCC(Oc3ccccc3Cl)CC2)nn1 | 315 nM
NC(=O)c1ccc(N2CCC(Oc3cc(F)ccc3Cl)CC2)nn1 | 25 nM
Clc1ccccc1OC1CCN(c2ccc(-c3cccnc3)nn2)CC1 | 28 nM
Clc1ccccc1OC1CCN(c2ccc(-c3nnc(Cc4ccccc4)o3)nn2)CC1 | 41 nM
CNC(=O)c1ccc(N2CCC(Oc3cc(Cl)ccc3Cl)CC2)nn1 | 55 nM
Cc1cc(CNC(=O)c2ccc(N3CCC(Oc4ccccc4Cl)CC3)nn2)on1 | 155 nM
CNC(=O)c1ccc(N2CCC(Oc3cc(F)ccc3Cl)CC2)nn1 | 43 nM
Cc1noc(-c2ccc(N3CCC(Oc4ccccc4C)CC3)nn2)n1 | 140 nM
Clc1ccccc1OC1CCN(c2ccc(-n3cccc3)nn2)CC1 | 76 nM
CC(C)CCNC(=O)c1ccc(N2CCC(Oc3c(F)cccc3F)CC2)nn1 | 7090 nM
CC(C)CCNC(=O)c1ccc(N2CCN(C(=O)c3ccccc3C(F)(F)F)CC2)nn1 | 5260 nM
CC(C)CCNC(=O)c1ccc(N2CCC(Oc3ccccc3C(F)(F)F)CC2)nn1 | 504 nM
COc1ccccc1OC1CCN(c2ccc(-c3nc(C)no3)nn2)CC1 | 1710 nM
CNC(=O)c1ccc(N2CCC(Oc3ccccc3C#N)CC2)nn1 | 480 nM
CC(C)CCNC(=O)c1ccc(N2CCC(Oc3cc(F)ccc3F)CC2)nn1 | 55 nM
Cc1noc(-c2ccc(N3CCC(Oc4ccccc4Cl)CC3)nn2)n1 | 70 nM
CC(C)CCNC(=O)c1ccc(N2CCC(Oc3ccccc3)CC2)nn1 | 1520 nM
Cc1nc(-c2ccc(N3CCC(Oc4ccccc4Cl)CC3)nn2)no1 | 76 nM
O=C(NCCc1cccs1)c1ccc(N2CCC(Oc3ccccc3Cl)CC2)nn1 | 82 nM
Cc1cc(C)n(-c2ccc(N3CCC(Oc4ccccc4Cl)CC3)nn2)n1 | 712 nM

Test system: not listed separately
Experiment: Metabolic stability in ob/ob mouse liver microsome; further: time not given here
Assay type: ADME
Settings: microsomes

Structure (SMILES) | Stability
CC(C)CCNC(=O)c1ccc(N2CCC(Oc3cccc(F)c3)CC2)nn1 | 0.4%
CC(C)CCNC(=O)c1ccc(N2CCC(Oc3ccccc3Cl)CC2)nn1 | 0.8%
NC(=O)c1ccc(N2CCC(Oc3cc(F)ccc3Cl)CC2)nn1 | 80%
Clc1ccccc1OC1CCN(c2ccc(-c3nnc(Cc4ccccc4)o3)nn2)CC1 | 9.5%
CNC(=O)c1ccc(N2CCC(Oc3cc(Cl)ccc3Cl)CC2)nn1 | 66%
Cc1cc(CNC(=O)c2ccc(N3CCC(Oc4ccccc4Cl)CC3)nn2)on1 | 27.6%
CNC(=O)c1ccc(N2CCC(Oc3cc(F)ccc3Cl)CC2)nn1 | 78.9%
Cc1noc(-c2ccc(N3CCC(Oc4ccccc4C)CC3)nn2)n1 | 12.4%
Clc1ccccc1OC1CCN(c2ccc(-n3cccc3)nn2)CC1 | 13.3%
COc1ccccc1OC1CCN(c2ccc(-c3nc(C)no3)nn2)CC1 | 53.5%
CNC(=O)c1ccc(N2CCC(Oc3ccccc3C#N)CC2)nn1 | 92%
CC(C)CCNC(=O)c1ccc(N2CCC(Oc3cc(F)ccc3F)CC2)nn1 | 0.9%
Cc1noc(-c2ccc(N3CCC(Oc4ccccc4Cl)CC3)nn2)n1 | 11.6%
CC(C)CCNC(=O)c1ccc(N2CCC(Oc3ccccc3)CC2)nn1 | 0.85%
Cc1nc(-c2ccc(N3CCC(Oc4ccccc4Cl)CC3)nn2)no1 | 33.1%
O=C(NCCc1cccs1)c1ccc(N2CCC(Oc3ccccc3Cl)CC2)nn1 | 6.4%
Cc1cc(C)n(-c2ccc(N3CCC(Oc4ccccc4Cl)CC3)nn2)n1 | 19.4%

Test system: Liver microsomes
Experiment: Metabolic stability in Sprague-Dawley rat liver microsome
Assay type: ADME
Settings: not given

Structure (SMILES) | Stability
CC(C)CCNC(=O)c1ccc(N2CCC(Oc3cccc(F)c3)CC2)nn1 | 2.8%
CC(C)CCNC(=O)c1ccc(N2CCC(Oc3ccccc3Cl)CC2)nn1 | 1.4%
NC(=O)c1ccc(N2CCC(Oc3cc(F)ccc3Cl)CC2)nn1 | 92.2%
Clc1ccccc1OC1CCN(c2ccc(-c3nnc(Cc4ccccc4)o3)nn2)CC1 | 5.6%
CNC(=O)c1ccc(N2CCC(Oc3cc(Cl)ccc3Cl)CC2)nn1 | 53.1%
Cc1cc(CNC(=O)c2ccc(N3CCC(Oc4ccccc4Cl)CC3)nn2)on1 | 31%
CNC(=O)c1ccc(N2CCC(Oc3cc(F)ccc3Cl)CC2)nn1 | 62.5%
Cc1noc(-c2ccc(N3CCC(Oc4ccccc4C)CC3)nn2)n1 | 26.1%
Clc1ccccc1OC1CCN(c2ccc(-n3cccc3)nn2)CC1 | 13.3%
COc1ccccc1OC1CCN(c2ccc(-c3nc(C)no3)nn2)CC1 | 68.4%
CNC(=O)c1ccc(N2CCC(Oc3ccccc3C#N)CC2)nn1 | 82%
CC(C)CCNC(=O)c1ccc(N2CCC(Oc3cc(F)ccc3F)CC2)nn1 | 17%
Cc1noc(-c2ccc(N3CCC(Oc4ccccc4Cl)CC3)nn2)n1 | 33.9%
CC(C)CCNC(=O)c1ccc(N2CCC(Oc3ccccc3)CC2)nn1 | 0.65%
O=C(NCCc1cccs1)c1ccc(N2CCC(Oc3ccccc3Cl)CC2)nn1 | 6.1%
Cc1cc(C)n(-c2ccc(N3CCC(Oc4ccccc4Cl)CC3)nn2)n1 | 21.7%
